Counter-ions that a name gives are not always drawn.
target: T1, hPPARγ receptor (Homo sapiens, UniProt P37231); test: PPARγ Cell-based luciferase assay; conditions: CV-1 cells transfected with GAL4-hPPARγ LBD and UAStkLuc; at concentrations of 10^−6 M or less; read-out: agonism of the hPPARγ receptor (activation relative to full agonist rosiglitazone)
T1 construct: expressed in transfected cells; host or cells: CV-1 (African Green Monkey kidney, ATCC CCL-70)
T1 sequence (P37231 172-475 isoform P37231-2): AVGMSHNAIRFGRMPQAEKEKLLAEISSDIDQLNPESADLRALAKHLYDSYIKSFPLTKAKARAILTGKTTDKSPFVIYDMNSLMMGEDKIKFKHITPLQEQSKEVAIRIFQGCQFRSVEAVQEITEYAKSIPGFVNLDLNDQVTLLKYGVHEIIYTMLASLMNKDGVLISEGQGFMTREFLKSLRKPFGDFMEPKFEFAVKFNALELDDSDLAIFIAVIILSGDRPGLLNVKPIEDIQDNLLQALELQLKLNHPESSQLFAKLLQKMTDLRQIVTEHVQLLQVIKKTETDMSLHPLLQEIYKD
Description: Plasmids—PCR primers containing Kpnl and BamHI restriction sites were used to amplify PPARγ ligand binding domain (LBD) fragment (172-475) from a full-length human clone. The LBD fragment was ligated into the multiple cloning site of pFA-CMV (Stratagene). The resulting construct (pFA-CMV-GAL4-hPPARγLBD carried a fusion of the LBD with the yeast-derived GAL4 DNA-binding domain under the control of the CMV immediate early promoter. Reporter construct UAStkLuc carries a single 17 bp (CGGAGTACTGTCCTCCG) upstream activating sequence (UAS), the tk minimal promoter, and the firefly luciferase gene. The integrity of each construct was confirmed by diagnostic restriction digestion and by sequencing. Plasmid DNA was prepared using Qiagen Maxi-Prep kits.
PPARγ Cell-based luciferase assay—African Green Monkey kidney cell line CV-1 (ATCC CCL-70) was maintained in Dulbecco's Modified Eagle's Medium (D-MEM) containing 10% fetal bovine serum, 2 mM glutamine, and 1% penicillin/streptomycin (pen/strep). In preparation for luciferase assays, CV-1 cells were grown in charcoal-stripped cell medium containing D-MEM/F-12 medium supplemented with 5% or 3% dextran-treated/charcoal-stripped (CS) fetal bovine serum, 2 mM glutamine, with or without 1% pen/strep, as described below. CS fetal bovine serum was purchased from Hyclone; all other cell culture reagents were from Gibco.
The luciferase protocol is a multi-day procedure. On day 1, confluent cells in maintenance medium were subcultured 1:10 into T-175 cm^2 flasks containing 50 mL of 3% CS medium with pen/strep. These flasks were allowed to incubate at 5% CO2 and 37° C. for 72 hours.
Cells were harvested by trypsinization and then transfected using FuGENE (Roche) according to the manufacturer's specifications. Briefly, each transfection contained 0.55 μg pFA_CMV_GAL4_hPPARγ_LBD plasmid, 10.9 μg UAStkLUC, and 24 μg pBluescript (carrier DNA). Plasmid DNA was mixed with FuGENE in OptiMEM-1 medium and incubated for 30 min at room temperature. During this incubation, cells were harvested into 3% CS medium without pen-strep and dispensed at 14 million cells per T-175 cm^2 flask. Transfection mixes were added to the flasks and incubated overnight at 5% CO2 and 37° C.
Transfected cells were added to 384-well plates containing pharmacological agents. Rosiglitazone standard was reconstituted in DMSO at 1 mM. For 11-point dose-response experiments, the compounds were 3-fold serially diluted in DMSO and then stamped to 384-well assay plates (NUNC, catalog #164564) at 0.5 μL/well using a Beckman FX. DMSO and agonist control compound Rosiglitazone (1 mM) were each stamped at 0.5 μL/well to columns 23 and 24, respectively, of the 384-well plates. Transfected cells were harvested in 5% CS medium with pen/strep and dispensed at 10,000 cells/well (50 μL) onto the prepared 384-well compound plates using a Titertek Multidrop. Following overnight incubation at 5% CO2 and 37° C., Steady-Glo reagent (Promega) was added to the assay plates using a Multidrop. Plates were incubated for 10 min to ensure complete cell lysis and read in a ViewLux (PerkinElmer). […] Partial agonism is defined here as 20-80% activation (relative to full agonist rosiglitazone) at concentrations of 10^−6 M or less.

| Emax [%] | SMILES |
| --- | --- |
| 20 to 80 | CN(C)CCCOc1cc(Cn2c(C(=O)O)c(Cc3cccc(C(F)(F)F)c3)c3ccccc32)cc(OCC2CC2)c1 [Example 57, 1-[(3-[(cyclopropylmethyl)oxy]-5-{[3-(dimethylamino)propyl]oxy}phenyl)methyl]-3-{[3-(trifluoromethyl)phenyl]methyl}-1H-indole-2-carboxylic acid hydrochloride] |
| 20 to 80 | CC(C)(C)c1ccc(-c2c(C(=O)O)n(Cc3cc(OCc4ccccc4)cc(-c4ccc(C(=O)O)cc4)c3)c3ccccc23)cc1 [Example 19, 1-({4′-carboxy-5-[(phenylmethyl)oxy]-3-biphenylyl}methyl)-3-[4-(1,1-dimethylethyl)phenyl]-1H-indole-2-carboxylic acid] |
| 20 to 80 | CC(C)(C)c1ccc(-c2c(C(=O)O)n(Cc3cc(OCCN4CCCC4)cc(OCC4CC4)c3)c3ccccc23)cc1 [Example 41, 1-[(3-[(cyclopropylmethyl)oxy]-5-{[2-(1-pyrrolidinyl)ethyl]oxy}phenyl)methyl]-3-[4-(1,1-dimethylethyl)phenyl]-1H-indole-2-carboxylic acid] |
| 20 to 80 | CCOC(=O)N1CCN(c2cccc(Cn3c(C(=O)O)c(-c4ccc(C(C)(C)C)cc4)c4ccccc43)c2)CC1 [Example 46, 3-[4-(1,1-dimethylethyl)phenyl]-1-[(3-{4-[(ethyloxy)carbonyl]-1-piperazinyl}phenyl)methyl]-1H-indole-2-carboxylic acid] |
| 20 to 80 | CSc1cccc(-c2ccc(C)c(Cn3c(C(=O)O)c(-c4ccc(C(C)(C)C)cc4)c4ccccc43)c2)c1 [Example 17, 3-[4-(1,1-dimethylethyl)phenyl]-1-{[4-methyl-3′-(methylthio)-3-biphenylyl]methyl}-1H-indole-2-carboxylic acid] |
| 20 to 80 | COCCOc1cc(Cn2c(C(=O)O)c(Nc3ccc(C(C)(C)C)cc3)c3ccccc32)cc(OCCOC)c1 [Example 62, 1-[(3,5-bis{[2-(methyloxy)ethyl]oxy}phenyl)methyl]-3-{[4-(1,1-dimethylethyl)phenyl]amino}-1H-indole-2-carboxylic acid] |
| 20 to 80 | Cc1ccc(-c2ccc(C(=O)NCc3cccs3)cc2)cc1Cn1c(C(=O)O)c(-c2ccc(C(C)(C)C)cc2)c2ccccc21 [Example 32, 3-[4-(1,1-dimethylethyl)phenyl]-1-[(4-methyl-4′-{[(2-thienylmethyl)amino]carbonyl}-3-biphenylyl)methyl]-1H-indole-2-carboxylic acid] |
| 20 to 80 | CC(C)(C)c1ccc(-c2c(C(=O)O)n(Cc3cccc(-c4cccc(S(C)(=O)=O)c4)c3)c3ccccc23)cc1 [Example 25, 3-[4-(1,1-dimethylethyl)phenyl]-1-{[3′-(methylsulfonyl)-3-biphenylyl]methyl}-1H-indole-2-carboxylic acid] |
| 20 to 80 | CC(C)(C)c1ccc(-c2c(C(=O)O)n(Cc3cccc(N4CCN(S(N)(=O)=O)CC4)c3)c3ccccc23)cc1 [Example 39, 1-({3-[4-(aminosulfonyl)-1-piperazinyl]phenyl}methyl)-3-[4-(1,1-dimethylethyl)phenyl]-1H-indole-2-carboxylic acid] |

The remaining lines, values behind:

| SMILES | Emax [%] |
| --- | --- |
| COc1ccc(-c2ccc(C)c(Cn3c(C(=O)O)c(-c4ccc(C(C)(C)C)cc4)c4ccccc43)c2)cc1 [Example 13, 3-[4-(1,1-dimethylethyl)phenyl]-1-{[4-methyl-4′-(methyloxy)-3-biphenylyl]methyl}-1H-indole-2-carboxylic acid] | 20 to 80 |
| Cc1ccc(-c2ccc(C(=O)NCCc3cccs3)cc2)cc1Cn1c(C(=O)O)c(-c2ccc(C(C)(C)C)cc2)c2ccccc21 [Example 33, 3-[4-(1,1-dimethylethyl)phenyl]-1-{[4-methyl-4′-({[2-(2-thienyl)ethyl]amino}carbonyl)-3-biphenylyl]methyl}-1H-indole-2-carboxylic acid] | 20 to 80 |
| CC(=O)N1CCN(c2cccc(Cn3c(C(=O)O)c(-c4ccc(C(C)(C)C)cc4)c4ccccc43)c2)CC1 [Example 35, 1-{[3-(4-acetyl-1-piperazinyl)phenyl]methyl}-3-[4-(1,1-dimethylethyl)phenyl]-1H-indole-2-carboxylic acid] | 20 to 80 |
| CC(=O)c1ccc(-c2c(C(=O)O)n(Cc3cc(-c4ccc(C(=O)O)cc4)ccc3C)c3ccccc23)cc1 [Example 14, 3-(4-acetylphenyl)-1-[(4′-carboxy-4-methyl-3-biphenylyl)methyl]-1H-indole-2-carboxylic acid] | 20 to 80 |
| CC(C)(C)c1ccc(-c2c(C(=O)O)n(Cc3cc(OCC4CC4)cc(OCC4CC4)c3)c3ccccc23)cc1 [Example 5, 1-({3,5-bis[(cyclopropylmethyl)oxy]phenyl}methyl)-3-[4-(1,1-dimethylethyl)phenyl]-1H-indole-2-carboxylic acid] | 20 to 80 |
| CC(C)(C)c1ccc(-c2c(C(=O)O)n(Cc3cccc(-c4ccc(OCc5ccccc5)cc4)c3)c3ccccc23)cc1 [Example 8, 3-[4-(1,1-dimethylethyl)phenyl]-1-({4′-[(phenylmethyl)oxy]-3-biphenylyl}methyl)-1H-indole-2-carboxylic acid] | 20 to 80 |
| COc1cc(Cn2c(C(=O)O)c(-c3ccc(C(C)(C)C)cc3)c3ccccc32)cc(OCC2CC2)c1 [Example 4, 1-{[3-[(cyclopropylmethyl)oxy]-5-(methyloxy)phenyl]methyl}-3-[4-(1,1-dimethylethyl)phenyl]-1H-indole-2-carboxylic acid] | 20 to 80 |
| COCCOCCCOc1cc(Cn2c(C(=O)O)c(Cc3cccc(C(F)(F)F)c3)c3ccccc32)cc(OCC2CC2)c1 [Example 55, 1-({3-[(cyclopropylmethyl)oxy]-5-[(3-{[2-(methyloxy)ethyl]oxy}propyl)oxy]phenyl}methyl)-3-{[3-(trifluoromethyl)phenyl]methyl}-1H-indole-2-carboxylic acid] | 20 to 80 |
| Cc1ccc(-c2ccc(OC(C)(C)C(=O)O)cc2)cc1Cn1c(C(=O)O)c(-c2ccc(C(C)(C)C)cc2)c2ccccc21 [Example 12, 1-({4′-[(1-carboxy-1-methylethyl)oxy]-4-methyl-3-biphenylyl}methyl)-3-[4-(1,1-dimethylethyl)phenyl]-1H-indole-2-carboxylic acid] | 20 to 80 |
| CC(C)(C)c1ccc(-c2c(C(=O)O)n(Cc3cccc(N4CCN(C(N)=O)CC4)c3)c3ccccc23)cc1 [Example 37, 1-({3-[4-(aminocarbonyl)-1-piperazinyl]phenyl}methyl)-3-[4-(1,1-dimethylethyl)phenyl]-1H-indole-2-carboxylic acid] | 20 to 80 |
| CC(C)(C)c1ccc(-c2c(C(=O)O)n(Cc3cccc(-c4ccc(O)cc4)c3)c3ccccc23)cc1 [Example 9, 3-[4-(1,1-dimethylethyl)phenyl]-1-[(4′-hydroxy-3-biphenylyl)methyl]-1H-indole-2-carboxylic acid] | 20 to 80 |
| CC(C)(C)c1ccc(-c2c(C(=O)O)n(Cc3cc(OCC4CC4)cc(C(F)(F)F)c3)c3ccccc23)cc1 [Example 65, 1-{[3-[(cyclopropylmethyl)oxy]-5-(trifluoromethyl)phenyl]methyl}-3-[4-(1,1-dimethylethyl)phenyl]-1H-indole-2-carboxylic acid] | 20 to 80 |
| O=C(O)c1c(Cc2cccc(C(F)(F)F)c2)c2ccccc2n1Cc1cc(OCC2CC2)cc(OCC2CC2)c1 [Example 59, 1-({3,5-bis[(cyclopropylmethyl)oxy]phenyl}methyl)-3-{[3-(trifluoromethyl)phenyl]methyl}-1H-indole-2-carboxylic acid] | 20 to 80 |

From patent US20100240642A1, “1H-Indole-2-Carboxylic Acid Derivatives Useful As PPAR Modulators” (SMITHKLINE BEECHAM CORPORATION, priority 2006, published 2010)
